The target of the assay is Potassium voltage-gated channel subfamily KQT member 2 (Rattus norvegicus) (UniProt O88943). Kind of assay: PubChem AID 588635. The settings on record: KCNQ2-CHO cells, manual whole-cell patch clamp current; at 0.1 µM; active compounds read high. (In general: In patch-clamp work, channel activity is measured electrically.)

SMILES strings stand for the structures.

One may read the inhibition as the relative decrease from the control value, in per cent.

Chain of Potassium voltage-gated channel subfamily KQT member 2 (Rattus norvegicus) (O88943 whole entry, looked up): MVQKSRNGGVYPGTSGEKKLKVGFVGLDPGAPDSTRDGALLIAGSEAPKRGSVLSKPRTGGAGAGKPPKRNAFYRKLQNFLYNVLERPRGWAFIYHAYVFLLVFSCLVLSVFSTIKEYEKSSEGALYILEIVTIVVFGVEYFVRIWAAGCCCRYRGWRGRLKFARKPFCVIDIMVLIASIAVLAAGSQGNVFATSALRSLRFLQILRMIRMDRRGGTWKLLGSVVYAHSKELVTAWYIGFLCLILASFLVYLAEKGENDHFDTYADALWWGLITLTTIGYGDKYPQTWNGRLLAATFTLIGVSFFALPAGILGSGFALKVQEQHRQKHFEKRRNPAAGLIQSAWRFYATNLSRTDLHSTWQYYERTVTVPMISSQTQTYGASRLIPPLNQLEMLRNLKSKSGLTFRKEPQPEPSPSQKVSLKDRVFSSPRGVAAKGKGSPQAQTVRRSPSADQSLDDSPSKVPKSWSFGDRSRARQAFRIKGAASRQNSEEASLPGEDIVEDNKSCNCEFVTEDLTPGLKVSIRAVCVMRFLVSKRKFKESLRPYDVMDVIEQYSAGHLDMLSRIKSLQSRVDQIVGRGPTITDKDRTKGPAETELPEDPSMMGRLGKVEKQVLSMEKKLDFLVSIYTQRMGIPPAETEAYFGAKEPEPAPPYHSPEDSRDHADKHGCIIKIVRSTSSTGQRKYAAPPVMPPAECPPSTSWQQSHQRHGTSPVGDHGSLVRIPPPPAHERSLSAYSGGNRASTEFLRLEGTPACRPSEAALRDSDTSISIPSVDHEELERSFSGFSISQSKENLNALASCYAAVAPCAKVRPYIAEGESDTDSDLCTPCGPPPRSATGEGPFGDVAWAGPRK

`CC[C@H](C(=O)Nc1ccccc1N1CCCC1)c1ccccc1`: the inhibition is 83.4%.

The values are drawn from PubChem BioAssay AID588635 (Johns Hopkins Ion Channel Center, 2011).
